These results are taken from US9549551B2, “Active compound combinations having insecticidal properties” (priority 2013, dated 2017).

Usually mortality stands for the share of the test organisms that died.

Like-named read-outs stand apart in the source and are kept apart here.

Assay type in all cases: in vivo
Data set [1] has as its system mustard beetle larvae (Phaedon cochleariae). As to the kind of experiment: Phaedon cochleariae - spray test. The following applies: foliar, 144 h, read-out: Efficacy in % after 6d (mortality). An excerpt:
(§1) The expected activity for a given combination of two active compounds can be calculated according to S. R. Colby, Weeds 15 (1967), 20-22 as follows: • If • X is the efficacy expressed in % mortality of the untreated control for test compound A at a concentration of m ppm respectively m g/ha, • Y is the efficacy expressed in % mortality of the untreated control for test compound B at a concentration of n ppm respectively n g/ha, • E is the efficacy expressed in % mortality of the untreated control using the mixture of A and B at m and n ppm respectively m and n g/ha,
(§2) If the observed insecticidal efficacy of the combination is higher than the one calculated as “E”, then the combination of the two compounds is more than additive, i.e., there is a synergistic effect.
To produce a suitable preparation of active compound, 1 part by weight of active compound is mixed with the stated amount of solvent and emulsifier, and the concentrate is diluted with emulsifier-containing water to the desired concentration. To produce a suitable preparation of a spore suspension the spores are diluted with emulsifier-containing water to the desired concentration.
Chinese cabbage (Brassica pekinensis) leaf-disks are sprayed with a preparation of the active ingredient of the desired concentration. Once dry, the leaf disks are infested with mustard beetle larvae (Phaedon cochleariae).
After the specified period of time, mortality in % is determined. 100% means all beetle larvae have been killed and 0% means none of the beetle larvae have been killed. The mortality values determined thus are recalculated using the Colby-formula (see sheet 1).

Data set [2] concerns larvae of the diamondback moth (Plutella xylostella). As to the kind of experiment: Plutella xylostella - spray test. The note with it: cabbage leaves.
Source text: as §1, §2
To produce a suitable preparation of active compound, 1 part by weight of active compound is mixed with the stated amount of solvent and emulsifier, and the concentrate is diluted with emulsifier-containing water to the desired concentration Ammonium salt and/or penetration enhancer in a dosage of 1000 ppm are added to the desired concentration if necessary. […]
After the specified period of time, the mortality in % is determined. […] The mortality values determined thus are recalculated using the Colby-formula (see sheet 1).

The test system of data set [3] is green peach aphid (Myzus persicae). As to the kind of experiment: Myzus persicae - spray test.
Source text: as §1, §2
To produce a suitable preparation of active compound, 1 part by weight of active compound is mixed with the stated amount of solvent and emulsifier, and the concentrate is diluted with emulsifier-containing water to the desired concentration.
Chinese cabbage (Brassica pekinensis) leaf-disks infected with all instars of the green peach aphid (Myzus persicae) are sprayed with a preparation of the active ingredient of the desired concentration.
After the specified period of time, mortality in % is determined 100% means all aphids have been killed; 0% means none of the aphids have been killed. The mortality values determined thus are recalculated using the Colby-formula (see sheet 1).

Take `O=C(NCCc1ncc(C(F)(F)F)cc1Cl)c1ccccc1C(F)(F)F` [Fluopyram, fluopyram]: the mortality at 100 g/ha in data set [1] (in Brassica rapa) worked out at 0%. Besides, the mortality at 50 ppm in data set [2] (Plutella xylostella, 72 h, 50 ppm, 3 d, read-out: Efficacy in % after 3d (mortality)) is 0%.
In the case of `O=C1C=C(N(Cc2ccc(Cl)nc2)CC(F)F)CO1` [Flupyradifurone], in data set [3] (0.5 g ai/ha, Chinese cabbage leaf disks, 6 d), the “Efficacy in % after 6d (mortality)” value is given as 0%. In data set [2] (1.25 ppm, 2 d), the “Efficacy in % after 2d (mortality)” value was 0%.
Take `CC(c1ccc(C(F)(F)F)nc1)S(C)(=O)=NC#N` (stereo not shown) [Sulfoxaflor (II-13), Sulfoxaflor]: in data set [1] (in Brassica rapa), the mortality at 0.16 g/ha was 0% and the mortality at 12 g/ha was determined as 0%. The mortality at 0.3 g/ha in data set [3] (Myzus persicae, in Brassica rapa, foliar, 144 h, read-out: Efficacy in % after 6d (mortality)) came to 70%.
Take `Cc1cc(C(F)(C(F)(F)F)C(F)(F)F)ccc1NC(=O)c1cccc(Cl)c1C(=O)NC(C)(C)C#N` [(I-5)]: the mortality at 2.5 g/ha in data set [1] (2.5 g ai/ha, Chinese cabbage leaf disks, 6 d) is 0%. Besides, the mortality at 4 g/ha in data set [1] (4 g ai/ha, Chinese cabbage leaf disks, 6 d) was determined as 0%. Moreover, the mortality at 12 g/ha in data set [1] (12 g ai/ha, Chinese cabbage leaf disks, 6 d) came to 0%. Moreover, in data set [3] (Myzus persicae, foliar, 144 h, 1.25 g ai/ha, Chinese cabbage leaf disks, 6 d, read-out: Efficacy in % after 6d (mortality)), the mortality at 1.25 g/ha was found to be 0%. In addition, the mortality at 1.5 g/ha in data set [3] (Myzus persicae, foliar, 144 h, 1.5 g ai/ha, Chinese cabbage leaf disks, 6 d, read-out: Efficacy in % after 6d (mortality)) stood at 0%. For the same compound, the mortality at 15 g/ha in data set [3] (Myzus persicae, foliar, 144 h, 15 g ai/ha, Chinese cabbage leaf disks, 6 d, read-out: Efficacy in % after 6d (mortality)) amounted to 0%.
